From patent US20140348819A1, “Methods of Treating Cancer” (Dana-Farber Cancer Institute, Inc., priority 2011, published 2014)

Tested on: six V600E BRAF melanoma cell lines
Assay: Screening of recombinant RTK ligands for ability to confer resistance to BRAFi (PLX4720) or MEKi (PD184352) (Table 4)
Assay type: cell-based, human
Parameters: ability of recombinant RTK ligand to confer resistance / ability of recombinant RTK ligand to confer resistance (screening value): scale not given here
Method in brief: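 Resistance to BRAFi (PLX4720) or MEKi (PD184352) was tested in six V600E BRAF melanoma lines given one of 22 recombinant RTK ligands. For a subset of RTKs, activation was checked by high-throughput tyrosine kinase phosphorylation profiling and western blot.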

[1] = A2058, PD184352 - 1 uM, ligand 1.6 ng/ml
[2] = A2058, PD184352 - 1 uM, ligand 6.25 ng/ml
[3] = A2058, PD184352 - 1 uM, ligand 25 ng/ml
[4] = A2058, PD184352 - 1 uM, ligand 100 ng/ml
[5] = A2058, PLX4720 - 2 uM, ligand 1.6 ng/ml
[6] = A2058, PLX4720 - 2 uM, ligand 6.25 ng/ml
[7] = A2058, PLX4720 - 2 uM, ligand 25 ng/ml
[8] = A2058, PLX4720 - 2 uM, ligand 100 ng/ml
[9] = C32, PD184352 - 1 uM, ligand 1.6 ng/ml
[10] = C32, PD184352 - 1 uM, ligand 6.25 ng/ml
[11] = C32, PD184352 - 1 uM, ligand 25 ng/ml
[12] = C32, PD184352 - 1 uM, ligand 100 ng/ml
[13] = C32, PLX4720 - 2 uM, ligand 1.6 ng/ml
[14] = C32, PLX4720 - 2 uM, ligand 6.25 ng/ml
[15] = C32, PLX4720 - 2 uM, ligand 25 ng/ml
[16] = C32, PLX4720 - 2 uM, ligand 100 ng/ml
[17] = Colo 829, PD184352 - 1 uM, ligand 1.6 ng/ml
[18] = Colo 829, PD184352 - 1 uM, ligand 6.25 ng/ml
[19] = Colo 829, PD184352 - 1 uM, ligand 25 ng/ml
[20] = Colo 829, PD184352 - 1 uM, ligand 100 ng/ml
[21] = Colo 829, PLX4720 - 2 uM, ligand 1.6 ng/ml
[22] = Colo 829, PLX4720 - 2 uM, ligand 6.25 ng/ml
[23] = Colo 829, PLX4720 - 2 uM, ligand 25 ng/ml
[24] = Colo 829, PLX4720 - 2 uM, ligand 100 ng/ml
[25] = G-361, PD184352 - 1 uM, ligand 1.6 ng/ml
[26] = G-361, PD184352 - 1 uM, ligand 6.25 ng/ml
[27] = G-361, PD184352 - 1 uM, ligand 25 ng/ml
[28] = G-361, PD184352 - 1 uM, ligand 100 ng/ml
[29] = G-361, PLX4720 - 2 uM, ligand 1.6 ng/ml
[30] = G-361, PLX4720 - 2 uM, ligand 6.25 ng/ml
[31] = G-361, PLX4720 - 2 uM, ligand 25 ng/ml
[32] = G-361, PLX4720 - 2 uM, ligand 100 ng/ml
[33] = SK-MEL-5, PD184352 - 1 uM, ligand 1.6 ng/ml
[34] = SK-MEL-5, PD184352 - 1 uM, ligand 6.25 ng/ml
[35] = SK-MEL-5, PD184352 - 1 uM, ligand 25 ng/ml
[36] = SK-MEL-5, PD184352 - 1 uM, ligand 100 ng/ml
[37] = SK-MEL-5, PLX4720 - 2 uM, ligand 1.6 ng/ml
[38] = SK-MEL-5, PLX4720 - 2 uM, ligand 6.25 ng/ml
[39] = SK-MEL-5, PLX4720 - 2 uM, ligand 25 ng/ml
[40] = SK-MEL-5, PLX4720 - 2 uM, ligand 100 ng/ml
[41] = SK-MEL-28, PD184352 - 1 uM, ligand 1.6 ng/ml
[42] = SK-MEL-28, PD184352 - 1 uM, ligand 6.25 ng/ml
[43] = SK-MEL-28, PD184352 - 1 uM, ligand 25 ng/ml
[44] = SK-MEL-28, PD184352 - 1 uM, ligand 100 ng/ml
[45] = SK-MEL-28, PLX4720 - 2 uM, ligand 1.6 ng/ml
[46] = SK-MEL-28, PLX4720 - 2 uM, ligand 6.25 ng/ml
[47] = SK-MEL-28, PLX4720 - 2 uM, ligand 25 ng/ml
[48] = SK-MEL-28, PLX4720 - 2 uM, ligand 100 ng/ml

## SCF
A2058, PD184352 - 1 uM, ligand 0.4 ng/ml
  ability of recombinant RTK ligand to confer resistance: 1.04
[1]
  ability of recombinant RTK ligand to confer resistance: 1.04
[2]
  ability of recombinant RTK ligand to confer resistance: 1.13
[3]
  ability of recombinant RTK ligand to confer resistance: 1.12
[4]
  ability of recombinant RTK ligand to confer resistance: 1.09
A2058, PLX4720 - 2 uM, ligand 0.4 ng/ml
  ability of recombinant RTK ligand to confer resistance: 1.04
[5]
  ability of recombinant RTK ligand to confer resistance: 1.06
[6]
  ability of recombinant RTK ligand to confer resistance: 1.07
[7]
  ability of recombinant RTK ligand to confer resistance: 1.13
[8]
  ability of recombinant RTK ligand to confer resistance: 1.08
C32, PD184352 - 1 uM, ligand 0.4 ng/ml
  ability of recombinant RTK ligand to confer resistance: 1.02
[9]
  ability of recombinant RTK ligand to confer resistance: 1.05
[10]
  ability of recombinant RTK ligand to confer resistance: 1.03
[11]
  ability of recombinant RTK ligand to confer resistance: 1.04
[12]
  ability of recombinant RTK ligand to confer resistance: 0.98
C32, PLX4720 - 2 uM, ligand 0.4 ng/ml
  ability of recombinant RTK ligand to confer resistance: 1.05
[13]
  ability of recombinant RTK ligand to confer resistance: 0.94
[14]
  ability of recombinant RTK ligand to confer resistance: 0.97
[15]
  ability of recombinant RTK ligand to confer resistance: 0.98
[16]
  ability of recombinant RTK ligand to confer resistance: 0.96
Colo 829, PD184352 - 1 uM, ligand 0.4 ng/ml
  ability of recombinant RTK ligand to confer resistance: 1.00
[17]
  ability of recombinant RTK ligand to confer resistance: 1.08
[18]
  ability of recombinant RTK ligand to confer resistance: 1.15
[19]
  ability of recombinant RTK ligand to confer resistance: 1.18
[20]
  ability of recombinant RTK ligand to confer resistance: 1.09
Colo 829, PLX4720 - 2 uM, ligand 0.4 ng/ml
  ability of recombinant RTK ligand to confer resistance: 0.96
[21]
  ability of recombinant RTK ligand to confer resistance: 1.01
[22]
  ability of recombinant RTK ligand to confer resistance: 1.06
[23]
  ability of recombinant RTK ligand to confer resistance: 1.10
[24]
  ability of recombinant RTK ligand to confer resistance: 1.04
G-361, PD184352 - 1 uM, ligand 0.4 ng/ml
  ability of recombinant RTK ligand to confer resistance: 1.06
[25]
  ability of recombinant RTK ligand to confer resistance: 0.99
[26]
  ability of recombinant RTK ligand to confer resistance: 1.06
[27]
  ability of recombinant RTK ligand to confer resistance: 1.13
[28]
  ability of recombinant RTK ligand to confer resistance: 1.07
G-361, PLX4720 - 2 uM, ligand 0.4 ng/ml
  ability of recombinant RTK ligand to confer resistance: 1.07
[29]
  ability of recombinant RTK ligand to confer resistance: 1.03
[30]
  ability of recombinant RTK ligand to confer resistance: 1.04
[31]
  ability of recombinant RTK ligand to confer resistance: 1.12
[32]
  ability of recombinant RTK ligand to confer resistance: 1.07
SK-MEL-5, PD184352 - 1 uM, ligand 0.4 ng/ml
  ability of recombinant RTK ligand to confer resistance: 0.97
[33]
  ability of recombinant RTK ligand to confer resistance: 0.34
[34]
  ability of recombinant RTK ligand to confer resistance: 1.02
[35]
  ability of recombinant RTK ligand to confer resistance: 1.10
[36]
  ability of recombinant RTK ligand to confer resistance: 1.12
SK-MEL-5, PLX4720 - 2 uM, ligand 0.4 ng/ml
  ability of recombinant RTK ligand to confer resistance: 0.90
[37]
  ability of recombinant RTK ligand to confer resistance: 8.91
[38]
  ability of recombinant RTK ligand to confer resistance: 0.96
[39]
  ability of recombinant RTK ligand to confer resistance: 1.00
[40]
  ability of recombinant RTK ligand to confer resistance: 1.09
SK-MEL-28, PD184352 - 1 uM, ligand 0.4 ng/ml
  ability of recombinant RTK ligand to confer resistance: 1.03
[41]
  ability of recombinant RTK ligand to confer resistance: 0.94
[42]
  ability of recombinant RTK ligand to confer resistance: 1.01
[43]
  ability of recombinant RTK ligand to confer resistance: 1.06
[44]
  ability of recombinant RTK ligand to confer resistance: 0.99
SK-MEL-28, PLX4720 - 2 uM, ligand 0.4 ng/ml
  ability of recombinant RTK ligand to confer resistance: 0.92
[45]
  ability of recombinant RTK ligand to confer resistance: 0.89
[46]
  ability of recombinant RTK ligand to confer resistance: 0.98
[47]
  ability of recombinant RTK ligand to confer resistance: 0.92
[48]
  ability of recombinant RTK ligand to confer resistance: 0.98

## neuregulin 1
[1]
  ability of recombinant RTK ligand to confer resistance: 1.04
[2]
  ability of recombinant RTK ligand to confer resistance: 1.08
[3]
  ability of recombinant RTK ligand to confer resistance: 1.14
[4]
  ability of recombinant RTK ligand to confer resistance: 1.18
A2058, PD184352 - 1 uM, ligand 400 ng/ml
  ability of recombinant RTK ligand to confer resistance: 1.27
[5]
  ability of recombinant RTK ligand to confer resistance: 1.05
[6]
  ability of recombinant RTK ligand to confer resistance: 1.07
[7]
  ability of recombinant RTK ligand to confer resistance: 1.12
[8]
  ability of recombinant RTK ligand to confer resistance: 1.09
A2058, PLX4720 - 2 uM, ligand 400 ng/ml
  ability of recombinant RTK ligand to confer resistance: 1.22
[9]
  ability of recombinant RTK ligand to confer resistance: 1.12
[10]
  ability of recombinant RTK ligand to confer resistance: 1.20
[11]
  ability of recombinant RTK ligand to confer resistance: 1.24
[12]
  ability of recombinant RTK ligand to confer resistance: 1.52
C32, PD184352 - 1 uM, ligand 400 ng/ml
  ability of recombinant RTK ligand to confer resistance: 1.32
[13]
  ability of recombinant RTK ligand to confer resistance: 1.01
[14]
  ability of recombinant RTK ligand to confer resistance: 1.07
[15]
  ability of recombinant RTK ligand to confer resistance: 1.10
[16]
  ability of recombinant RTK ligand to confer resistance: 1.20
C32, PLX4720 - 2 uM, ligand 400 ng/ml
  ability of recombinant RTK ligand to confer resistance: 1.22
[17]
  ability of recombinant RTK ligand to confer resistance: 1.10
[18]
  ability of recombinant RTK ligand to confer resistance: 1.04
[19]
  ability of recombinant RTK ligand to confer resistance: 1.11
[20]
  ability of recombinant RTK ligand to confer resistance: 1.37
Colo 829, PD184352 - 1 uM, ligand 400 ng/ml
  ability of recombinant RTK ligand to confer resistance: 1.21
[21]
  ability of recombinant RTK ligand to confer resistance: 0.03
[22]
  ability of recombinant RTK ligand to confer resistance: 0.98
[23]
  ability of recombinant RTK ligand to confer resistance: 1.06
[24]
  ability of recombinant RTK ligand to confer resistance: 1.24
Colo 829, PLX4720 - 2 uM, ligand 400 ng/ml
  ability of recombinant RTK ligand to confer resistance: 1.17
[25]
  ability of recombinant RTK ligand to confer resistance: 0.93
[26]
  ability of recombinant RTK ligand to confer resistance: 0.96
[27]
  ability of recombinant RTK ligand to confer resistance: 0.98
[28]
  ability of recombinant RTK ligand to confer resistance: 1.01
G-361, PD184352 - 1 uM, ligand 400 ng/ml
  ability of recombinant RTK ligand to confer resistance: 1.17
[29]
  ability of recombinant RTK ligand to confer resistance: 0.87
[30]
  ability of recombinant RTK ligand to confer resistance: 1.06
[31]
  ability of recombinant RTK ligand to confer resistance: 0.93
[32]
  ability of recombinant RTK ligand to confer resistance: 0.99
G-361, PLX4720 - 2 uM, ligand 400 ng/ml
  ability of recombinant RTK ligand to confer resistance: 1.14
[33]
  ability of recombinant RTK ligand to confer resistance: 0.96
[34]
  ability of recombinant RTK ligand to confer resistance: 0.97
[35]
  ability of recombinant RTK ligand to confer resistance: 1.01
[36]
  ability of recombinant RTK ligand to confer resistance: 1.06
SK-MEL-5, PD184352 - 1 uM, ligand 400 ng/ml
  ability of recombinant RTK ligand to confer resistance: 1.07
[37]
  ability of recombinant RTK ligand to confer resistance: 0.94
[38]
  ability of recombinant RTK ligand to confer resistance: 0.91
[39]
  ability of recombinant RTK ligand to confer resistance: 0.98
[40]
  ability of recombinant RTK ligand to confer resistance: 1.04
SK-MEL-5, PLX4720 - 2 uM, ligand 400 ng/ml
  ability of recombinant RTK ligand to confer resistance: 0.96
[41]
  ability of recombinant RTK ligand to confer resistance: 1.09
[42]
  ability of recombinant RTK ligand to confer resistance: 1.08
[43]
  ability of recombinant RTK ligand to confer resistance: 1.05
[44]
  ability of recombinant RTK ligand to confer resistance: 1.08
SK-MEL-28, PD184352 - 1 uM, ligand 400 ng/ml
  ability of recombinant RTK ligand to confer resistance: 1.22
[45]
  ability of recombinant RTK ligand to confer resistance: 0.92
[46]
  ability of recombinant RTK ligand to confer resistance: 1.18
[47]
  ability of recombinant RTK ligand to confer resistance: 1.09
[48]
  ability of recombinant RTK ligand to confer resistance: 1.09
SK-MEL-28, PLX4720 - 2 uM, ligand 400 ng/ml
  ability of recombinant RTK ligand to confer resistance: 1.19
